Measured values published in ChEMBL document CHEMBL1134062, “Spirocyclic nonpeptide glycoprotein IIb-IIIa antagonists. Part 2: design of potent antagonists containing the 3-azaspiro[5.5]undecanes” (Bioorg Med Chem Lett, 2001).

How the values were obtained:
Homo sapiens = species on record: Homo sapiens; assay: In vitro ability to inhibit the aggregation of ADP-stimulated human platelets; type: functional
[1] = target: Integrin alpha-IIb/beta-3 (Homo sapiens, UniProt P05106+P08514); assay: In vitro inhibitory activity against blockage of binding of fibrinogen to purified human GPIIbIIIa; type: protein-complex assay
Sequence of Integrin alpha-IIb/beta-3 (P05106 27-788 limits assumed): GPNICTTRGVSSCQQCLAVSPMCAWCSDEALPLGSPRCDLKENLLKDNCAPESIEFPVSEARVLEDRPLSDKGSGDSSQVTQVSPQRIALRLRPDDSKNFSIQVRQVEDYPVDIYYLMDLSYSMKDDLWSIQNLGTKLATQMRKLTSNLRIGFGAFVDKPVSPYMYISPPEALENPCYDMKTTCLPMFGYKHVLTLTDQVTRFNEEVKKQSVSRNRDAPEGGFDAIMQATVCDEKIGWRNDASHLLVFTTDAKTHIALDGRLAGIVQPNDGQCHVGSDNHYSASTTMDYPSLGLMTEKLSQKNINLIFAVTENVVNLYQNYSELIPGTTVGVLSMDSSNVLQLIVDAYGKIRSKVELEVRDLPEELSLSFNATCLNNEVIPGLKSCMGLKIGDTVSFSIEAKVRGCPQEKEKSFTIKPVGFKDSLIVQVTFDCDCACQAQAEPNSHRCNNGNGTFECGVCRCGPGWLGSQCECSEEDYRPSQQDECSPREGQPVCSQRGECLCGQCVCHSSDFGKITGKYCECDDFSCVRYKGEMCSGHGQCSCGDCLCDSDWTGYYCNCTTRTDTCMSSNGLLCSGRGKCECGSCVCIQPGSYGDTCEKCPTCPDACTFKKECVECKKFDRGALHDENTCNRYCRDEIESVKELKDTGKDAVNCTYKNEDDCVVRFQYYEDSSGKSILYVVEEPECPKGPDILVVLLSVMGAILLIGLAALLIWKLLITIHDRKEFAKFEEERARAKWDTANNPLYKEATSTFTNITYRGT
Sequence of Integrin alpha-IIb/beta-3 (P08514 32-887 limits assumed): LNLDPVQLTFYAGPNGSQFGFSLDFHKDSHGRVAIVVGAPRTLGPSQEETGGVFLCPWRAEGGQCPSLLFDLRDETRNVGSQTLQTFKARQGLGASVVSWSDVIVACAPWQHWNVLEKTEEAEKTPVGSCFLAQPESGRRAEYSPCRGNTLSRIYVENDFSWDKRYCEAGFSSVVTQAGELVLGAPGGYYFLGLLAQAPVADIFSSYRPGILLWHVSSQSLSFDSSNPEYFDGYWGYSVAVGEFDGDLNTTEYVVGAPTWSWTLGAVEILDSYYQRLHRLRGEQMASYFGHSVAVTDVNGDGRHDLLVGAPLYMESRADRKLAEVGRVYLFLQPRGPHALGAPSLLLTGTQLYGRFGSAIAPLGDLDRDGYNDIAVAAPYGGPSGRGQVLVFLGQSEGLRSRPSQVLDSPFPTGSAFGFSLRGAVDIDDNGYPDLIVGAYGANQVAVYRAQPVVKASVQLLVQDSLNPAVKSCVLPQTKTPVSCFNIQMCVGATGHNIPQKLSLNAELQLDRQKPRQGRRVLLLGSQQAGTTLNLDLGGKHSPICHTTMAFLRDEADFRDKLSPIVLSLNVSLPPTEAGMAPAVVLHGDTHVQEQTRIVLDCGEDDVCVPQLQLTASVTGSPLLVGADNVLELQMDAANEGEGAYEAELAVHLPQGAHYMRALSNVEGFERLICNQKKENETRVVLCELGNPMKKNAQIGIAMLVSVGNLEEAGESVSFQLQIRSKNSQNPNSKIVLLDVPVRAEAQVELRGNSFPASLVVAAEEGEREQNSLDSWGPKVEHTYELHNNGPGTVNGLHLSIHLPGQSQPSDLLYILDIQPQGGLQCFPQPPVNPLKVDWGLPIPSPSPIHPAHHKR
Sequence of Integrin alpha-IIb/beta-3 (P08514 891-1039 limits assumed): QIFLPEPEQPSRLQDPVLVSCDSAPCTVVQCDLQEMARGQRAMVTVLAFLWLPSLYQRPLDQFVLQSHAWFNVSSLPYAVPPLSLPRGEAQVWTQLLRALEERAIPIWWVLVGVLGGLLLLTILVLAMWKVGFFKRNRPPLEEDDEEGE

Row | IC50 (Homo sapiens) [nM] | IC50 [1] [nM] | SMILES
1 | 1300 | 8 | CCCCOC(=O)N[C@@H](CNC(=O)C1CCC2(CC1)CCN(c1ccncc1)CC2)C(=O)O
2 | 40 | – | Cc1noc(C)c1S(=O)(=O)N[C@@H](CNC(=O)C1CCC2(CC1)CCN(c1ccncc1)CC2)C(=O)O
3 | 179 | – | CCCCS(=O)(=O)N[C@@H](CNC(=O)C1CCC2(CC1)CCN(c1ccncc1)CC2)C(=O)O
4 | 50000 | 100000 | O=C(O)CCC(=O)N1CCC2(CCC(C(=O)N3CCC(C4CCNCC4)CC3)CC2)CC1
5 | 2700 | 2 | O=C(N[C@@H](CNC(=O)C1CCC2(CC1)CCN(c1ccncc1)CC2)C(=O)O)OCc1ccccc1
6 | 12200 | 830 | N[C@@H](CNC(=O)C1CCC2(CC1)CCN(c1ccncc1)CC2)C(=O)O
7 | 289 | 250 | O=C(O)CN1CCC2(CCC(C(=O)N3CCC(C4CCNCC4)CC3)CC2)CC1
8 | 38500 | – | N=C(N)c1ccc(C(=O)N2CCC3(CCC(C(=O)NCC(=O)O)CC3)CC2)cc1
9 | 4000 | 332 | CC(CNC(=O)C1CCC2(CC1)CCN(c1ccncc1)CC2)CC(=O)O (stereo not drawn)
10 | 19700 | 15000 | N=C(N)c1ccc(C(=O)N2CCC3(CCC(C(=O)O)CC3)CC2)cc1
11 | 12000 | 319 | O=C(O)CCCNC(=O)C1CCC2(CC1)CCN(c1ccncc1)CC2
12 | 37100 | 5000 | N=C(N)c1ccc(N2CCC3(CCC(C(=O)NCCCC(=O)O)CC3)CC2)cc1
13 | 50000 | 100000 | O=C(O)CCCC(=O)N1CCC2(CCC(C(=O)N3CCC(C4CCNCC4)CC3)CC2)CC1
14 | 890 | 160 | O=C(O)CNC1CCC2(CC1)CCN(c1ccncc1)CC2
15 | 117 | 364 | O=C(O)CN1CCC2(CCC(C(=O)N3CCN(c4ccncc4)CC3)CC2)CC1
16 | 14300 | 616 | C[C@@H](CC(=O)O)NC(=O)C1CCC2(CC1)CCN(c1ccncc1)CC2
17 | 7900 | 3450 | O=C(O)CCN1CCC2(CCC(C(=O)N3CCN(c4ccncc4)CC3)CC2)CC1
18 | 5500 | 60 | N=C(N)c1ccc(N2CCC3(CCC(C(=O)NCCC(=O)O)CC3)CC2)cc1
19 | 1100 | 250 | O=C(O)COC1CCC2(CC1)CCN(c1ccncc1)CC2
20 | 4500 | – | O=C(O)CCNC1CCC2(CC1)CCN(c1ccncc1)CC2
21 | 177 | – | Cc1ccc(S(=O)(=O)N[C@@H](CNC(=O)C2CCC3(CC2)CCN(c2ccncc2)CC3)C(=O)O)cc1
22 | 77000 | – | O=C(O)C[C@@H](NC(=O)C1CCC2(CC1)CCN(c1ccncc1)CC2)c1ccccc1
